The assay deals with T1, wild-type FLT3 phosphorylation in Baf3 FLT3 cells (Homo sapiens, UniProt P36888).
T1 sequence (P36888 27-993): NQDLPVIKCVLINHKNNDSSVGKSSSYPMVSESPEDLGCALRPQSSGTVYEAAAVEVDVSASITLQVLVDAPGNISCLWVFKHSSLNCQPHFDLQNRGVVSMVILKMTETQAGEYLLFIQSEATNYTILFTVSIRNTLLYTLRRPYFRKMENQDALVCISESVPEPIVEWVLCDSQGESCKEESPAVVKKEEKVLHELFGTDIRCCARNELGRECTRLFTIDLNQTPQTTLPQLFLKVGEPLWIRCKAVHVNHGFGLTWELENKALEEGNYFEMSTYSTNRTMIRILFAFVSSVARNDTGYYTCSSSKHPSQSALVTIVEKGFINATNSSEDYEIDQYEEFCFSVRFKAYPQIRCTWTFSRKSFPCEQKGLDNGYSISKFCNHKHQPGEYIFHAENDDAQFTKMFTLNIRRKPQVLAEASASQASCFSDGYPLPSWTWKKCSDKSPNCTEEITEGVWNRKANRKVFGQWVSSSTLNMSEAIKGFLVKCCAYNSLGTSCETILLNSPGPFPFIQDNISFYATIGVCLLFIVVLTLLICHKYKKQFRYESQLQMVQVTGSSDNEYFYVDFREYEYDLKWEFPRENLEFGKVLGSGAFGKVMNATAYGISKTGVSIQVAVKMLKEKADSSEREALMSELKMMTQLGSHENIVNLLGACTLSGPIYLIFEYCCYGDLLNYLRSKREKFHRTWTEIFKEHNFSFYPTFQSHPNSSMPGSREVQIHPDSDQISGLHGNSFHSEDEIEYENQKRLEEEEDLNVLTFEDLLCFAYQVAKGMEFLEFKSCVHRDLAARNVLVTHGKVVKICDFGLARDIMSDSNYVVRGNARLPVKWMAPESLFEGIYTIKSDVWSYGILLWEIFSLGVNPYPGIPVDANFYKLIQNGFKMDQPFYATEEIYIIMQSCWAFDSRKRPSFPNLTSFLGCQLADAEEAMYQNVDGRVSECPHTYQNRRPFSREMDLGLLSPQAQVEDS
In words: Cell-Based FLT3 Receptor Elisa. The settings on record: 1 hour compound, 100 ng/mL Flt ligand 10 min; uncertainty ±20%. On the procedure:
Cell-Based FLT3 Receptor Elisa
Specific cellular inhibition of FLT ligand-induced wild-type FLT3 phosphorylation was measured in the following manner: Baf3 FLT3 cells overexpressing the FLT3 receptor were obtained from Dr. Michael Heinrich (Oregon Health and Sciences University). The Baf3 FLT3 cell lines were created by stable transfection of parental Baf3 cells (a murine B cell lymphoma line dependent on the cytokine IL-3 for growth) with wild-type FLT3. Cells were selected for their ability to grow in the absence of IL-3 and in the presence of FLT3 ligand.
Baf3 cells were maintained in RPMI 1640 with 10% FBS, penn/strep and 10 ng/ml FLT ligand at 37° C., 5% CO2. To measure direct inhibition of the wild-type FLT3 receptor activity and phosphorylation a sandwich ELISA method was developed similar to those developed for other RTKs (see Sadick, M D, Sliwkowski, M X, Nuijens, A, Bald, L, Chiang, N, Lofgren, J A, Wong W L T. Analysis of Heregulin-Induced ErbB2 Phosphorylation with a High-Throughput Kinase Receptor Activation Enzyme-Linked Immunsorbent Assay, Analytical Biochemistry. 1996; 235:207-214 and Baumann C A, Zeng L, Donatelli R R, Maroney A C. Development of a quantitative, high-throughput cell-based enzyme-linked immunosorbent assay for detection of colony-stimulating factor-1 receptor tyrosine kinase inhibitors. J Biochem Biophys Methods. 2004; 60:69-79.). 200 μL of Baf3FLT3 cells (1×10^6/mL) were plated in 96 well dishes in RPMI 1640 with 0.5% serum and 0.01 ng/mL IL-3 for 16 hours prior to 1 hour compound or DMSO vehicle incubation. Cells were treated with 100 ng/mL Flt ligand (R&D Systems Cat# 308-FK) for 10 min. at 37° C. Cells were pelleted, washed and lysed in 100 ul lysis buffer (50 mM Hepes, 150 mM NaCl, 10% Glycerol, 1% Triton-X-100, 10 mM NaF, 1 mM EDTA, 1.5 mM MgCl2, 10 mM NaPyrophosphate) supplemented with phosphatase (Sigma Cat# P2850) and protease inhibitors (Sigma Cat #P8340). Lysates were cleared by centrifugation at 1000×g for 5 minutes at 4° C. Cell lysates were transferred to white wall 96 well microtiter (Costar #9018) plates coated with 50 ng/well anti-FLT3 antibody (Santa Cruz Cat# sc-480) and blocked with SeaBlock reagent (Pierce Cat#37527). Lysates were incubated at 4° C. for 2 hours. Plates were washed 3× with 200 ul/well PBS/0.1% Triton-X-100. Plates were then incubated with 1:8000 dilution of HRP-conjugated anti-phosphotyrosine antibody (Clone 4G10, Upstate Biotechnology Cat#16-105) for 1 hour at room temperature. Plates were washed 3× with 200 ul/well PBS/0.1% Triton-X-100. Signal detection with Super Signal Pico reagent (Pierce Cat#37070) was done according to manufacturer's instruction with a Berthold microplate luminometer. All data points are an average of triplicate samples. […] Inhibition and IC50 data analysis was done with GraphPad Prism using a non-linear regression fit with a multiparamater, sigmoidal dose-response (variable slope) equation.
As to `CO/N=C/c1c(N)ncnc1N1CCC(NC(=O)Nc2ccc(Cl)cc2)CC1` [Number 25, 1-{1-[6-Amino-5-(methoxyimino-methyl)-pyrimidin-4-yl]-piperidin-4-yl}-3-(4-chloro-phenyl)-urea], half-maximal inhibition (IC50) required 78 nM. Then `CCNC(=O)NCCO/N=C/c1c(N)ncnc1N1CCC(NC(=O)Nc2ccc(C(C)C)cc2)C1` (stereo not shown) [Number 28, 1-[1-(6-Amino-5-{[2-(3-ethyl-ureido)-ethoxyimino]-methyl}-pyrimidin-4-yl)-pyrrolidin-3-yl]-3-(4-isopropyl-phenyl)-urea], with 2300 nM. Next, `CO/N=C/c1c(N)ncnc1N1CCC(NC(=O)Nc2ccc(OC3CCC3)nc2)CC1` [Number 15, 1-{1-[6-Amino-5-(methoxyimino-methyl)-pyrimidin-4-yl]-piperidin-4-yl}-3-(6-cyclobutoxy-pyridin-3-yl)-urea]: 195 nM. With `CO/N=C/c1c(N)ncnc1N1CCC(NC(=O)Nc2ccc(Oc3ccccc3)cc2)C1` (stereo not shown) [Number 19, 1-{1-[6-Amino-5-(methoxyimino-methyl)-pyrimidin-4-yl]-pyrrolidin-3-yl}-3-(4-phenoxy-phenyl)-urea], it took 134 nM to reach half-maximal inhibition (IC50). Next, `CO/N=C/c1c(N)ncnc1N1CCC(NC(=O)Nc2ccc(OC(C)C)cc2)CC1` [Number 12, 1-{1-[6-Amino-5-(methoxyimino-methyl)-pyrimidin-4-yl]-piperidin-4-yl}-3-(4-isopropoxy-phenyl)-urea]: 217 nM.

Turning to `CO/N=C/c1c(N)ncnc1N1CCC(NC(=O)Nc2ccc(N3CCCCC3)cc2)CC1` [Number 13, 1-{1-[6-Amino-5-(methoxyimino-methyl)-pyrimidin-4-yl]-piperidin-4-yl}-3-(4-piperidin-1-yl-phenyl)-urea], the half-inhibitory concentration (IC50) (commonly the concentration at which inhibition is half-maximal) is 468 nM.

The compound `CO/N=C/c1c(N)ncnc1N1CCC(NC(=O)Nc2ccc(OC3CCCC3)nc2)CC1` [Number 23, 1-{1-[6-Amino-5-(methoxyimino-methyl)-pyrimidin-4-yl]-piperidin-4-yl}-3-(6-cyclopentyloxy-pyridin-3-yl)-urea] gave a half-inhibitory concentration (IC50) of 35 nM. Next, `CO/N=C/c1c(N)ncnc1N1CCC(NC(=O)Nc2ccc(N3CCCC3)cc2)C1` (stereo not shown) [Number 20, 1-{1-[6-Amino-5-(methoxyimino-methyl)-pyrimidin-4-yl]-pyrrolidin-3-yl}-3-(4-pyrrolidin-1-yl-phenyl)-urea]: 299 nM; `CO/N=C/c1c(N)ncnc1N1CCC(NC(=O)Nc2ccc(C3CCCCC3)cc2)CC1` [Number 22, 1-{1-[6-Amino-5-(methoxyimino-methyl)-pyrimidin-4-yl]-piperidin-4-yl}-3-(4-cyclohexyl-phenyl)-urea]: 40 nM; `CO/N=C/c1c(N)ncnc1N1CCC(OC(=O)Nc2ccc(C(C)C)cc2)CC1` [Number 5, (4-Isopropyl-phenyl)-carbamic acid 1-[6-amino-5-(methoxyimino-methyl)-pyrimidin-4-yl]-piperidin-4-yl ester]: 4 nM. Next, `CCO/N=C/c1c(N)ncnc1N1CCC(OC(=O)Nc2ccc(OC(C)C)cc2)CC1` [Number 2, (4-Isopropoxy-phenyl)-carbamic acid 1-[6-amino-5-(ethoxyimino-methyl)-pyrimidin-4-yl]-piperidin-4-yl ester]: 74 nM; `CC(C)c1ccc(NC(=O)NC2CCN(c3ncnc(N)c3/C=N/OCC(=O)N3CCOCC3)C2)cc1` (stereo not shown) [Number 29, 1-(1-{6-Amino-5-[(2-morpholin-4-yl-2-oxo-ethoxyimino)-methyl]-pyrimidin-4-yl}-pyrrolidin-3-yl)-3-(4-isopropyl-phenyl)-urea]: 2400 nM; `CO/N=C/c1c(N)ncnc1N1CCC(NC(=O)Nc2ccc(OC(C)C)cc2)C1` (stereo not shown) [Number 8, 1-{1-[6-Amino-5-(methoxyimino-methyl)-pyrimidin-4-yl]-pyrrolidin-3-yl}-3-(4-isopropoxy-phenyl)-urea]: 176 nM.

Regarding `CO/N=C/c1c(N)ncnc1N1CCC(OC(=O)Nc2ccc(OC(C)C)cc2)CC1` [Number 1, (4-Isopropoxy-phenyl)-carbamic acid 1-[6-amino-5-(methoxyimino-methyl)-pyrimidin-4-yl]-piperidin-4-yl ester], half-maximal inhibition (IC50) required 204 nM. `CO/N=C/c1c(N)ncnc1N1CCC(CC(=O)Nc2ccc(C(C)C)cc2)CC1` [Number 7, 2-{1-[6-Amino-5-(methoxyimino-methyl)-pyrimidin-4-yl]-piperidin-4-yl}-N-(4-isopropyl-phenyl)-acetamide] had an IC50 of 169 nM.

Take `CO/N=C/c1c(N)ncnc1N1CCC(NC(=O)Nc2ccc(N3CCOCC3)cc2)C1` (stereo not shown) [Number 10, 1-{1-[6-Amino-5-(methoxyimino-methyl)-pyrimidin-4-yl]-pyrrolidin-3-yl}-3-(4-morpholin-4-yl-phenyl)-urea]: 1300 nM corresponded to half-maximal inhibition (IC50). Next, `CO/N=C/c1c(N)ncnc1N1CCC(NC(=O)Nc2ccc(Oc3ccccc3)cc2)CC1` [Number 26, 1-{1-[6-Amino-5-(methoxyimino-methyl)-pyrimidin-4-yl]-piperidin-4-yl}-3-(4-phenoxy-phenyl)-urea]: 175 nM. Next, `CO/N=C/c1c(N)ncnc1N1CCC(NC(=O)Nc2ccc(OC3CCCC3)nc2)C1` (stereo not shown) [Number 21, 1-{1-[6-Amino-5-(methoxyimino-methyl)-pyrimidin-4-yl]-pyrrolidin-3-yl}-3-(6-cyclopentyloxy-pyridin-3-yl)-urea]: 99 nM; `CO/N=C/c1c(N)ncnc1N1CCC(NC(=O)Nc2ccc(OC3CCC3)nc2)C1` (stereo not shown) [Number 11, 1-{1-[6-Amino-5-(methoxyimino-methyl)-pyrimidin-4-yl]-pyrrolidin-3-yl}-3-(6-cyclobutoxy-pyridin-3-yl)-urea]: 229 nM.

With `CC(C)Oc1ccc(NC(=O)OC2CCN(c3ncnc(N)c3/C=N/OCCCN(C)C)CC2)cc1` [Number 4, (4-Isopropoxy-phenyl)-carbamic acid 1-{6-amino-5-[(3-dimethylamino-propoxyimino)-methyl]-pyrimidin-4-yl}-piperidin-4-yl ester], the midpoint of inhibition, the IC50, lay at 345 nM.

Regarding `CO/N=C/c1c(N)ncnc1N1CCC(CC(=O)Nc2ccc(C(C)C)cc2)C1` (stereo not shown) [Number 6, 2-{1-[6-Amino-5-(methoxyimino-methyl)-pyrimidin-4-yl]-pyrrolidin-3-yl}-N-(4-isopropyl-phenyl)-acetamide], the IC50 was 15 nM. This IC50 is about 23-fold lower than that of the compound before.

`CO/N=C/c1c(N)ncnc1N1CCC(NC(=O)Nc2ccc(C3CCCCC3)cc2)C1` (stereo not shown) [Number 17, 1-{1-[6-Amino-5-(methoxyimino-methyl)-pyrimidin-4-yl]-pyrrolidin-3-yl}-3-(4-cyclohexyl-phenyl)-urea]: 299 nM corresponded to half-maximal inhibition (IC50).

These data come from patent US20060281700A1, “SYNERGISTIC MODULATION OF FLT3 KINASE USING AMINOPYRIMIDINES KINASE MODULATORS” (priority 2005, published 2006).
